Results on four molecules are retold here after patent publication US20050119197A1, “Naadp analogues for modulating t-cell activity” (priority 2000, published 2005).

Common to all, as to format: cell-based, human
The subject of experiment [1] is OKT3-mediated Ca^2+-signaling (TCR/CD3 complex). The experiment can be described thus: Effect of microinjected NAADP^+ on OKT3-induced Ca^2+ signaling in single Jurkat T-lymphocytes. As to the method:
Jurkat T-lymphocytes were loaded with Fura2/AM and ratiometric Ca^2+ imaging and parallel microinjection in the presence of 1 mM extracellular Ca^2+ was carried out as detailed under ‘Experimental Procedures’. The cells were injected with different concentrations of NAADP^+ and then OKT3(10 μg/ml) was added. Injection of intracellular buffer (A), NAADP^+ (50 nM [B] and 10 μM [C]), and addition of OKT3 is indicated by arrows. Data are presented as a typical tracing from one individual cell, for each condition at least 3 experiments were carried out.
(§1) Batches of 10^7 Jurkat T cells were loaded with Fura2/AM as described (Guse et al., 1993). Fura2-loaded cells (10^7 cells/5 ml) were kept at room temperature until use. Glass coverslips were coated first with bovine serum albumin (5 mg/ml), and then with poly-L-lysine (0.1 mg/ml). Small chambers consisting of a rubber O-ring were sealed on the coverslips by silicon grease. Then 90 μl of extracellular buffer (140 mM NaCl, 5 mM KCl, 1 mM MgSO4, 1 mM CaCl2, 20 mM Hepes, 1 mM NaH2PO4, 5.5 mM glucose, pH 7.4) was added, followed by addition of 10 μl cell suspension. The coverslip was mounted on the stage of an inverted microscope (Axiovert 100, Zeiss, Oberkochingen, Germany). […] Ratio images (340/380) were constructed pixel by pixel, and changes in the ratio over time were measured by applying “regions-of-interest” on individual cells. […]

Experiment [2] deals with Jurkat T cells. As to the kind of experiment: Ca^2+ signals in single intact Jurkat T-lymphocytes microinjected with compound (ratiometric Fura2 Ca^2+ imaging). Particulars: 50 nM microinjected; nominal Ca^2+-free buffer; data not shown.
The test system of experiment [3] is cADPR-mediated Ca^2+-signal. The experiment can be described thus: Co-injection of NAADP^+ with cADPR in Jurkat T-lymphocytes. As to the method: (§2) Jurkat T-lymphocytes were loaded with Fura2/AM and ratiometric Ca^2+ imaging and parallel microinjection in the presence of 1 mM extracellular Ca^2+ was carried out as detailed under ‘Experimental Procedures’. […] Shown are (n=number of experiments): A/F, coinjection of NAADP (50 nM) and 8-OCH3-cADPR (100 μM) (n=7); B/G, injection of NAADP^+ (50 nM, n=10); C/H, coinjection of NAADP^+ (10 μM) and cADPR (10 μM) (n=7); D/I, coinjection of NAADP^+ (50 nM) and cADPR (10 μM) (n=5); E/J, injection of cADPR (10 μM, n=5).
as §1

The test system of experiment [4] is Ins(1,4,5)P3-mediated Ca^2+-release. The experiment can be described thus: Co-injection of NAADP^+ with Ins(1,4,5)P3 in Jurkat T-lymphocytes. Here is the method: (§3) Jurkat T-lymphocytes were loaded with Fura2/AM and ratiometric Ca^2+ imaging and parallel microinjection in the presence of 1 mM extracellular Ca^2+ was carried out as detailed under ‘Experimental Procedures’. […] Shown are: A/F, coinjection of NAADP^+ (50 nM) and […] (40 μM) (n=7); B/G, injection of NAADP^+ (50 nM) (n=10); C/H, coinjection of NAADP^+ (10 μM) and Ins(1,4,5)P3 (4 μM) (n=9); D/I, coinjection of NAADP^+ (50 nM) and Ins(1,4,5)P3 (4 μM) (n=3); E/J injection of Ins(1,4,5)P3 (4 μM; n=8)
as §1

In experiment [5] the test system is Jurkat T cells. As to the kind of experiment: Ca^2+ signals in single intact Jurkat T-lymphocytes microinjected with compound (ratiometric Fura2 Ca^2+ imaging). Particulars: for Ca^2+ signal after microinjection: 1 mM extracellular Ca^2+. As to the method: Jurkat T-lymphocytes were loaded with Fura2/AM and Ca^2+ was measured as detailed under ‘Experimental Procedures’. Cells were injected as described in Experimental Procedures’ in the presence of 1 mM extacellular Ca^2+. Data are presented as overlays of single tracings of individual cells (left panel). […] As a control vehicle buffer without NAADP^+ was injected (A,B). The time point of microinjection is indicated by arrows.
Data from FIG. 1 are shown as mean values (n=5 to 17) from time point 80 sec (Ca^2+ peak; A) or 400 sec (Ca^2+ plateau; B).
Jurkat T-lymphocytes were loaded with Fura2/AM and ratiometric Ca^2+ imaging and parallel microinjection in the presence of 1 mM extracellular Ca^2+ was carried out as detailed under ‘Experimental Procedures’. Cells were injected with 50 nM NAADP^+ (A) or NADP^+ (B). Shown are the averages from 13 (A) and 5 (B) cells. The time point of microinjection is indicated by arrows.
Jurkat T lymphocytes (subclone JMP) were cultured in RPMI 1640 medium containing the following additions: Glutamax I, HEPES (20 mM, pH 7.4), NCS (7.5%), penicillin (100 U/ml) and streptomycin (50 μg/ml; all obtained from Life Technologies, Eggenstein, Germany). The cells were cultured at 37° C. in a humidified atmosphere in the presence of 5% CO2.
Batches of 10^7 Jurkat T cells were loaded with Fura2/AM as described (Guse et al., 1993). Fura2-loaded cells (10^7 cells/5 ml) were kept at room temperature until use. Glass coverslips were coated first with bovine serum albumin (5 mg/ml), and then with poly-L-lysine (0.1 mg/ml). Small chambers consisting of a rubber O-ring were sealed on the coverslips by silicon grease. Then 90 μl of extracellular buffer (140 mM NaCl, 5 mM KCl, 1 mM MgSO4, 1 mM CaCl2, 20 mM Hepes, 1 mM NaH2PO4, 5.5 mM glucose, pH 7.4) was added, followed by addition of 10 μl cell suspension. The coverslip was mounted on the stage of an inverted microscope (Axiovert 100, Zeiss, Oberkochingen, Germany). Ratiometric Ca^2+-imaging was performed using a PhotoMed/Photon Technology (Wedel, Germany) digital imaging system built around the Axiovert 100 microscope. Illumination at 340 and 380 nm was carried out using a chopper/optical filter system. Images were captured by an intensified CCD camera (type C2400-77; spatial resolution: 525×487 pixel; Hamamatsu, Garching, Germany) and stored as individual 340 and 380 images on harddisk. Sampling rate was usually 5 sec for a pair of images (340 and 380 nm) using 100-fold magnification. Data analysis was performed off-line using PhotoMed/Photon Technology (Wedel, Germany) “Image master” analysis software. Ratio images (340/380) were constructed pixel by pixel, and changes in the ratio over time were measured by applying “regions-of-interest” on individual cells. Finally, ratio values were converted to Ca^2+-concentrations by external calibration.
Parallel Ca^2+ imaging and microin ection experiments require a firm attachment of the Jurkat T cells without preactivation of intracellular Ca^2+-signaling. This was achieved by the above mentioned coating procedure of the glass coverslips, as detailed earlier (Guse et al., 1997). The cells were kept in a small chamber (100 μl volume) in extracellular buffer (140 mM NaCl, 5 mM KCl, 1 mM MgSO4, 1 mM CaCl2, 20 mM Hepes, 1 mM NaH2PO4, 5.5 mM glucose, pH 7.4). Compounds to be microinjected were cleared from particles by either filtration through 0.45 μm filters, by centrifugation in an Eppendorf centrifuge at maximal speed for 10 min, or by both. Femtotips II (Eppendorf-Netheler-Hintz, Hamburg, Germany) were filled with 5 μl of reagent solution and inserted into the semi-automatic Eppendorf microinjection system (Transjector 5246, Micromanipulator 5171, Eppendorf-Netheler-Hintz, Hamburg, Germany). Injection parameters were: injection pressure: 80 hPa, compensatory pressure: 40 hPa, duration of injection: 0.5 sec, velocity of pipette: 700 μm/sec, pipette angle: 45°. Injections were performed into the upper part of the cell.

For experiment [6], the system named is NAADP^+-mediated Ca^2+-signaling. The experiment can be described thus: Co-injection of antagonists with NAADP^+: influence on NAADP^+-mediated Ca^2+-signaling in Jurkat T-lymphocytes. As to the method: as §2, §3
Batches of 10^7 Jurkat T cells were loaded with Fura2/AM as described (Guse et al., 1993). Fura2-loaded cells (10^7 cells/5 ml) were kept at room temperature until use. Glass coverslips were coated first with bovine serum albumin (5 mg/ml), and then with poly-L-lysine (0.1 mg/ml). Small chambers consisting of a rubber O-ring were sealed on the coverslips by silicon grease. Then 90 μl of extracellular buffer (140 mM NaCl, 5 mM KCl, 1 mM MgSO4, 1 mM CaCl2, 20 mM Hepes, 1 mM NaH2PO4, 5.5 mM glucose, pH 7.4) was added, followed by addition of 10 μl cell suspension. The coverslip was mounted on the stage of an inverted microscope (Axiovert 100, Zeiss, Oberkochingen, Germany). Ratiometric Ca^2+-imaging was performed using a PhotoMed/Photon Technology (Wedel, Germany) digital imaging system built around the Axiovert 100 microscope. Illumination at 340 and 380 nm was carried out using a chopper/optical filter system. […] Ratio images (340/380) were constructed pixel by pixel, and changes in the ratio over time were measured by applying “regions-of-interest” on individual cells. […]

[7] abbreviates: Ins(1,4,6)PS3 40 μM co-injected with NAADP^+ 50 nM, vs NAADP^+ alone.

With `Nc1ncnc2c1ncn2[C@@H]1O[C@H](COP(=O)(O)OP(=O)(O)OCC2OC([n+]3cccc(C(=O)[O-])c3)C(O)C2O)[C@@H](O)[C@H]1OP(=O)(O)O` (stereo in doubt) [NAADP^+, nicotinic acid adenine dinucleotide phosphate], the “effect on OKT3-mediated Ca^2+-signal” value in experiment [1] (NAADP^+ 50 nM microinjected prior to OKT3 10 μg/ml) is “did not significantly change”. The “effect on OKT3-mediated Ca^2+-signaling” value in experiment [1] (NAADP^+ 10 μM (desensitizing) microinjected before OKT3 10 μg/ml) is listed as “dramatic inhibition”. Besides, the “high initial Ca^2+-spike in nominal Ca^2+-free extracellular buffer” value in the experiment with Jurkat T cells [2] is “massively reduced”. Further, the “effect on cADPR-mediated Ca^2+ signals” value in experiment [3] (NAADP^+ 50 nM co-injected with cADPR 10 μM) is “did not significantly change”. Moreover, the “effect on cADPR-mediated Ca^2+-signal” value in experiment [3] (NAADP^+ 10 μM (self-desensitizing) co-injected with cADPR 10 μM) was “massive decrease”. Moreover, in experiment [4] (NAADP^+ 50 nM co-injected with Ins(1,4,5)P3 4 μM), the “Ca^2+ signal on co-injection with Ins(1,4,5)P3” value was “high initial Ca^2+ peak”. Further, in experiment [4] (NAADP^+ 10 μM (desensitizing) co-injected with Ins(1,4,5)P3 4 μM), the “effect on Ins(1,4,5)P3-mediated Ca^2+-release” value is on record as “almost complete inhibition”. The “longlasting Ca^2+-signal as measured at 400 s” value in the experiment on Jurkat T cells [5] (100 nM, Ca^2+ plateau, FIG. 2B) is “only minor changes”. Further, the “optimal concentration for the initial Ca^2+-peak (bell shaped dose response curve)” value with Jurkat T cells [5] (Ca^2+ peak at 80 sec, FIG. 2A) is 100 nM. Also, the “Ca^2+ signal after microinjection” value in the experiment on Jurkat T cells [5] (pipette concentration 0.1 nM) was “without effect in most of the cells”; in the experiment with Jurkat T cells [5] (pipette concentration 1 nM), “without effect in most of the cells”; with Jurkat T cells [5] (pipette concentration 10 nM), “stimulated repetitive, longlasting Ca^2+ spiking of low amplitude”; with Jurkat T cells [5] (pipette concentration 10 nM, listed as NAADP+) it was “evokes repetitive and longlasting Ca^2+ oscillations of low amplitude”; in the experiment on Jurkat T cells [5] (pipette concentration 50 nM), “an initial, rapidly occurring Ca^2+-peak with a high amplitude”; with Jurkat T cells [5] (pipette concentration 50 nM, listed as NAADP+), “a rapid and high initial Ca^2+ peak followed by trains of smaller Ca^2+ oscillations”. The “Ca^2+ signal after microinjection” value with Jurkat T cells [5] (pipette concentration 100 nM) is “a rapid and high initial Ca^2+ peak followed by trains of smaller Ca^2+ oscillations”; in the experiment with Jurkat T cells [5] (pipette concentration 1 μM), “gradually reduce the initial Ca^2+ peak”; in the experiment on Jurkat T cells [5] (pipette concentration 10 μM), “gradually reduce the initial Ca^2+ peak”; with Jurkat T cells [5] (pipette concentration 100 μM), “no signal was detectable”; with Jurkat T cells [5] (pipette concentration 100 μM, listed as NAADP+) it was “complete self-inactivation of Ca^2+-signals”.

On to `OC1C(O)C(OP(O)(O)=S)C(OP(O)(O)=S)C(O)C1OP(O)(O)=S` (stereo not drawn) [Ins(1,4,6)PS3], for which, in experiment [6] (setting [7]), the “decay of the initial Ca^2+ peak of NAADP^+-mediated signal” value is recorded as “faster decay” and the “effect on initial Ca^2+ peak of NAADP^+-mediated signal” value is “partial reduction”.

Turning to `COc1nc2c(=N)n3cnc2n1C1OC(COP(=O)(O)OP(=O)(O)OCC2OC3C(O)C2O)C(O)C1O` (stereo not drawn) [8-OCH3-cADPR], the “effect on NAADP^+-mediated Ca^2+-signaling” value in experiment [6] (8-OCH3-cADPR 100 μM co-injected with NAADP^+ 50 nM) is “did not significantly affect”.

On to “nicotinamide-adenine dinucleotide phosphate [NADP^+]”, for which the “Ca^2+ signal after microinjection” value with Jurkat T cells [5] (pipette concentration 50 nM) is given as “completely without effect”.
